The values that follow are results of earlier work, collected in US10213411B2, “Use of prodrugs of fumarates in treating heart failure diseases” (priority 2015, dated 2019).

Data set [1] relates to astrogliosis and microglial activations.
Data set [2] has as its system central nervous system (CNS) inflammation. The note with it: preclinical.
The test system is the same in data set [3]. The note with it: preclinical. The source holds these as a separate data set.
The conditions of data set [4]: healthy subjects, compared by MMF plasma levels.

Structures can show the parent of a compound that is named as a salt.

For `COC(=O)/C=C/C(=O)OC` [DMF, Dimethyl fumarate], in data set [1], the “astrogliosis and microglial activations associated with EAE” value is “inhibit astrogliosis and microglial activations”. Besides, in data set [2], the “CNS inflammation in murine EAE” value is listed as “inhibit central nervous system (CNS) inflammation”. Further, the “CNS inflammation in rat EAE” value in data set [3] is on record as “inhibit central nervous system (CNS) inflammation”.
As to `COC(=O)/C=C/C(=O)OCCN1C(=O)CCC1=O` [ALKS 8700], in data set [4], the “dose comparable to 240 mg DMF (Tecfidera) by plasma levels of MMF” value was 420 mg.
